{
  "source": "ChEMBL document CHEMBL1150844",
  "about": "“Isolation and structures of hedaols A, B, and C, new bisnorditerpenes from a Japanese brown alga” (J Nat Prod, 2001)",
  "system": "P388",
  "assay": "Cytotoxicity against mouse P388 cells after 4 days by MTT method",
  "type": "functional, cell-based",
  "details": "P388, 96 h",
  "data": [
    {"smiles": "CC(C)=CC(=O)/C=C(/C)CCC/C(C)=C/CC[C@@H](C)O", "note": "[HEDAOL A]", "values": [
      {"measurement": "IC50", "value": 5.1, "unit": "µg/mL"}
    ]},
    {"smiles": "CC(C)=CC(=O)C/C(C)=C/CC/C(C)=C/CC[C@@H](C)O", "note": "[HEDAOL B]", "values": [
      {"measurement": "IC50", "value": 2.2, "unit": "µg/mL"}
    ]},
    {"smiles": "CC(C)=CC(=O)/C=C(\\C)CCC/C(C)=C/CC[C@@H](C)O", "note": "[HEDAOL C]", "values": [
      {"measurement": "IC50", "value": 50, "unit": "µg/mL"}
    ]}
  ]
}
